Measured values reported in ChEMBL document CHEMBL1201862, “PubChem BioAssay data set” (2004).
The source made the active and inactive calls. For most assays here, no stated cut-off is given here; in the data, actives have a measured EC50 and inactives only a lower limit.

How the values were obtained:
[1] = target: T1, High affinity choline transporter 1 (Homo sapiens, UniProt Q9GZV3); assay: human choline transporter blockers, potency – cell-based, 5-point CRC, membrane potential dye, dose response (AID 504840); type: functional
T1 sequence (Q9GZV3 whole entry): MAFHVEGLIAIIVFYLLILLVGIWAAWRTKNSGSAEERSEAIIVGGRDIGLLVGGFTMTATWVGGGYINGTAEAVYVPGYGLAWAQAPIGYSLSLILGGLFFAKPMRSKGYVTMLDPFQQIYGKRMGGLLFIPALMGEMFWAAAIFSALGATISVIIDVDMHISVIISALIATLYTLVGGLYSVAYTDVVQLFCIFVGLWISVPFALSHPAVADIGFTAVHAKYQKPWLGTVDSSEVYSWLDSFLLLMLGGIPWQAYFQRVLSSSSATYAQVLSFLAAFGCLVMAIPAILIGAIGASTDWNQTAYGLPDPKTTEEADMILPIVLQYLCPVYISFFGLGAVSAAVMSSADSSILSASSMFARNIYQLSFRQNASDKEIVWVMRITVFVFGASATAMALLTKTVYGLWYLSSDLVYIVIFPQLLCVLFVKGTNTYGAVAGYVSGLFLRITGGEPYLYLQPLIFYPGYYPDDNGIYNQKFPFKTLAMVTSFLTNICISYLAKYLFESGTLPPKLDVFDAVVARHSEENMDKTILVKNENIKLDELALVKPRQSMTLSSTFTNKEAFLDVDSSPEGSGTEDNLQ

[2] = target: T1, High affinity choline transporter 1; assay: human choline transporter blockers, potency – cell-based, 10-point CRC, membrane potential dye, dose response (AID 588401); type: functional;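 further: membrane potential dye fluorescence of choline-evoked depolarization via CHT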
[3] = target: T2, RNA-binding protein pos-1 (Caenorhabditis elegans, UniProt G5EF15); assay: disruptors of C. elegans POS-1 RNA interaction – biochemical, fluorescence polarization, dose response (AID 1964);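 further: purified POS-1 fused to maltose binding protein made in E. coli; potency of compounds blocking POS-1 binding to fluorescent RNA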
T2 sequence (G5EF15 whole entry): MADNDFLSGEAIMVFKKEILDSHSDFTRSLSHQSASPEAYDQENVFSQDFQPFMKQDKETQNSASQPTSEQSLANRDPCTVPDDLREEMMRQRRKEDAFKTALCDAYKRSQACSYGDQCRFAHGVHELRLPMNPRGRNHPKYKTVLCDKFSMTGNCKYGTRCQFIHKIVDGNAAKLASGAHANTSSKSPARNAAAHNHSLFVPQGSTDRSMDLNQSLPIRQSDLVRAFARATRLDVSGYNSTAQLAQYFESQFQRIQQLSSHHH

[4] = target: Protein disulfide-isomerase (Homo sapiens, UniProt P07237); assay: inhibition of PDI-driven insulin aggregation – biochemical, turbidity, absorbance, cherry-picked samples, dose response (AID 602350); type: functional
[5] = target: T3, Mannose-6-phosphate isomerase (Homo sapiens, UniProt P34949); assay: MPI inhibition at elevated mannose 6-phosphate – biochemical, fluorescence intensity, high mannose 6-phosphate, primary screen (AID 1220)
T3 sequence (P34949 whole entry): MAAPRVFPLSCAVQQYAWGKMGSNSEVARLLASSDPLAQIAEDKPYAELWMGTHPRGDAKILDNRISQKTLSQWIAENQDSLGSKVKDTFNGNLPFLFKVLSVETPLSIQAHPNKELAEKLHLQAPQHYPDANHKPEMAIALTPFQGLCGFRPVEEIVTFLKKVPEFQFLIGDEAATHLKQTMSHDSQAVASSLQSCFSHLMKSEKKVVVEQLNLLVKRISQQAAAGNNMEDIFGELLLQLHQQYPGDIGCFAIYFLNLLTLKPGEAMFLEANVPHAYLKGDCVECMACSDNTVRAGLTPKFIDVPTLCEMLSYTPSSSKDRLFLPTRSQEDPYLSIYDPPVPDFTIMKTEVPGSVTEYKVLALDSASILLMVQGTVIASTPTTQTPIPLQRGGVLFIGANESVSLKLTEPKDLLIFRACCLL

[6] = target: T4, Zinc finger protein mex-5 (Caenorhabditis elegans, UniProt Q9XUB2); assay: potency of MEX-5 RNA-binding blockers – biochemical, C. elegans, fluorescence polarization, dose response (AID 1960)
T4 sequence (Q9XUB2 whole entry): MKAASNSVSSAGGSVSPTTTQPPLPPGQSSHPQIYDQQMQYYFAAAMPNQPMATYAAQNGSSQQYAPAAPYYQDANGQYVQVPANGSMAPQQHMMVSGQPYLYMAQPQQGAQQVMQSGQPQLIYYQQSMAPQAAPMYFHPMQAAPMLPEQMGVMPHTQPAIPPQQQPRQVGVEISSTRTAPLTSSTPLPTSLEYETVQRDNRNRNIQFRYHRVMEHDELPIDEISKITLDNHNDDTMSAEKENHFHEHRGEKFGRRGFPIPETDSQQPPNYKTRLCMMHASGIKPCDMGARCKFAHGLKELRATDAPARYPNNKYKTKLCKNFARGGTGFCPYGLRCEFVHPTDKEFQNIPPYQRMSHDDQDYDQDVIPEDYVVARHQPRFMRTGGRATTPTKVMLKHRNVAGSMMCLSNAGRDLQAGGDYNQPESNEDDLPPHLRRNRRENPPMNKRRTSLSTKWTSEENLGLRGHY

[7] = target: T5, RNA-editing ligase 1, mitochondrial (Trypanosoma brucei brucei, UniProt P86926); assay: inhibition of trypanosome RNA editing ligase – biochemical, fluorescence, Trypanosoma brucei, dose response (AID 1117295); type: functional
T5 sequence (P86926 whole entry): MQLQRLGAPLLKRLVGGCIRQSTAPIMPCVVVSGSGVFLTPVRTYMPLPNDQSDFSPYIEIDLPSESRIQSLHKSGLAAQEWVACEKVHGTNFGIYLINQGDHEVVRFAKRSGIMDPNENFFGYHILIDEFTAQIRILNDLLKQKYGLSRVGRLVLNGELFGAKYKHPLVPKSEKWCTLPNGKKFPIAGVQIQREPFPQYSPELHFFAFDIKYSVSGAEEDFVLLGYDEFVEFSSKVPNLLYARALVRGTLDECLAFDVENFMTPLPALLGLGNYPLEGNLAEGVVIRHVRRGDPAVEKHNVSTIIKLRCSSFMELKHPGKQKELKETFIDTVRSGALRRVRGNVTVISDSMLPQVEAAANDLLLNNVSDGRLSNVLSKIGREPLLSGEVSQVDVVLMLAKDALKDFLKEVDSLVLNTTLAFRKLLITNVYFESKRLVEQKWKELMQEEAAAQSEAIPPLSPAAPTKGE

cells = type: functional, cell-based
[8] = viability loss of HPDE-C7K cells – cell-based, fluorescence, HTS, primary screen (AID 431); type: functional; conditions: Homo sapiens
[9] = alpha-synuclein stem-loop luciferase translation blockers – H4 neuroglioma cells, luminescence, confirmation (AID 1988); type: functional, cell-based
[10] = HPDE-C7 pancreatic duct cell viability loss – fluorescence, HTS (AID 430); type: functional, cell-based; conditions: Homo sapiens
[11] = luciferase reporter signal suppression in cells – H4 neuroglioma cells, luminescence, dose response (AID 1990); type: functional, cell-based
[12] = luciferase reporter signal reduction – luminescence, H4-C neuroglioblastoma cells, dose response (AID 2458); type: functional, cell-based;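 further: H4 neuroglioblastoma cells stably carrying a luciferase reporter gene fusion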
[13] = alpha-synuclein stem-loop translation blockers – luminescence, H4 neuroglioblastoma cells, dose confirmation, confirmation (AID 2454); type: functional, cell-based;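 further: H4 neuroglioblastoma cells carrying an alpha-synuclein 5'UTR luciferase reporter; potency for inhibition of the luciferase signal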

Chain of Protein disulfide-isomerase (P07237 whole entry): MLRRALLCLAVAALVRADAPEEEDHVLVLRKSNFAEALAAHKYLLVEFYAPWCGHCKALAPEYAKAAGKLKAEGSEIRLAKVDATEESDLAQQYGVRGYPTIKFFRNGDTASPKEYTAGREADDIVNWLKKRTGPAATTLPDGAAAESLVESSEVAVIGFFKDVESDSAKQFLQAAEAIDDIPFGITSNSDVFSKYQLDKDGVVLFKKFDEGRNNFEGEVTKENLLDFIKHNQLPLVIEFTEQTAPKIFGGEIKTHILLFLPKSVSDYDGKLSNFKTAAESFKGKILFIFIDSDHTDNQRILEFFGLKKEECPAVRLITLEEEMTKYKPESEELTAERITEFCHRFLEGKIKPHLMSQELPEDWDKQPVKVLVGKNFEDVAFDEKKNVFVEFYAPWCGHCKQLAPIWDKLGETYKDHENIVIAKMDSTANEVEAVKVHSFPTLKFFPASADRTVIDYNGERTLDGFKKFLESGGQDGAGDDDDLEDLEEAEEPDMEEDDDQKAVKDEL

Q: What does the source list for `CCCCN(CCCC)CCNC(=O)c1cn(CC)c2ccc(S(=O)(=O)N3CCc4ccccc4C3)cc2c1=O`?
A: IC50 [1]: 4.07 µM (active); IC50 [2]: 4.28 µM (active)

Q: For `C[C@@H]1O[C@@H](Oc2c(-c3cc(O)c(O)c(O)c3)oc3cc(O)cc(O)c3c2=O)[C@H](O)[C@H](O)[C@H]1O`, which EC50 [3] is on record?
A: The EC50 was 15.8 µM (active).

Q: What about the AC50 [4] of the same compound?
A: The AC50 was 9.8 µM (active).

Q: And the IC50 [5]?
A: The IC50 was 31 µM (active).

Q: And the EC50 [6]?
A: Its EC50 is 14 µM (active).

Q: And the IC50 [7]?
A: The IC50 was 51.4 µM (inactive).

Q: Which IC50 [1] does the source give for `COc1ccc(C2=Nn3c(nnc3-c3ccccc3OC)SC2)cc1OC` here?
A: The IC50 was 1.15 µM (active).

Q: What about the EC50 (cells) of the same compound?
A: Its EC50 is 0.494 µM (active).

Q: What about the EC50 [8] of the same compound?
A: Its EC50 is 0.3 µM (active).

Q: What about the EC50 [9] of the same compound?
A: The EC50 was < 0.1 µM (active).

Q: What about the EC50 [10] of the same compound?
A: Its EC50 is 0.7 µM (active).

Q: What about the EC50 [11] of the same compound?
A: Its EC50 is < 0.1 µM (active).

Q: What about the IC50 [2] of the same compound?
A: Its IC50 is 4.22 µM (active).

Q: And the EC50 [12]?
A: The EC50 was 0.624 µM (active).

Q: What about the EC50 [13] of the same compound?
A: Its EC50 is 0.551 µM (active).

Q: For `O=C(NC(Cc1ccc(O)cc1)C(=O)N=Nc1c(O)[nH]c2ccccc12)c1ccccc1` (configuration not stated), which AC50 [4] is on record?
A: The AC50 was 19.5 µM (active).
